Results as given in PMC12286057, “An Investigation of 5-Halogenated N-Indolylsulfonyl-2-fluorophenol Derivatives as Aldose Reductase Inhibitors” (Medicines, 2025).

Assays:
ALR2 = system: ALR2; parameters: method as in Mylari et al. [49]; conditions: preclinical studies; ref Mylari et al. [49]; cited from earlier work
[1] = parameters: method as in Mylari et al. [49]; conditions: ref Mylari et al. [49], cited from earlier work
Caco-2 = system: Caco-2; parameters: method as in Mylari et al. [49]; conditions: ref Mylari et al. [49]; cited from earlier work
diabetic rats = system: diabetic rats; parameters: method as in Mylari et al. [49]; conditions: lens, retina and sciatic nerve of diabetic rats; ref Mylari et al. [49]; cited from earlier work
[2] = target: T1, partially purified ALR2 from rat lenses (Rattus norvegicus, UniProt P07943); experiment: ALR2 enzymatic assay (NADPH consumption, DL-glyceraldehyde substrate); format: biochemical; conditions: for fold activity loss compared to lead compound IIc: IC50 ratio versus IIc, rat ALR2 enzyme; for fold less strong ARI than sorbinil and epalrestat: IC50 ratio versus the reference drugs sorbinil and epalrestat; for inhibition at 10 µM: cut-off concentration of 10 μM; for IC50: partially purified ALR2 from rat lenses, 0.1–10 μM concentrations
T1 construct: Supernatant containing the partially purified ALR2 enzyme was used directly or stored at −80 °C for less than 24 h; from tissue; host or cells: eye lenses of Fischer-344 rats (homogenate supernatant after 40% ammonium sulfate precipitation)
Method: The ALR2 enzyme was isolated from rat lenses of the Fischer-344 series. Laboratory animal handling and experiment conduct was carried out in accordance with the Law on the Protection of Laboratory Animals (Hellenic Republic) and was declared to the Veterinary Authority of the Republic of Greece. The animal study protocol was approved by the Ethics Committee of the Prefecture of Central Macedonia (protocol code 270079/2500) for studies involving animals.
Eye lenses were quickly removed from Fischer-344 rats following euthanasia. The enzyme was partially purified by a well-established and previously reported procedure. The lenses were removed from euthanized rats and were quickly stored at −80 °C until used. Great care was taken to clean the lenses mechanically from other ocular tissues and debris. The lenses were homogenized in 5 vol of cold ultrapure water (0.5 mL per lens), and the homogenate was centrifuged at 10,000 × rpm at 0–4 °C for 15 min. The supernatant was then collected, precipitated with a saturated solution of ammonium sulfate (40% saturation), and centrifuged at 10,000 × rpm at 0–4 °C for 15 min. Supernatant containing the partially purified ALR2 enzyme was used directly or stored at −80 °C for less than 24 h.
ALR2 activity was assayed spectrophotometrically by determining NADPH consumption (ε340nm = 6300 M^−1 × cm^−1). The examined compounds were dissolved in DMSO (1% final concentration) at appropriate final concentrations (0.1–10 μM). The effects of the compounds on enzyme activity were determined by including the inhibitor in the reaction mixture at required concentrations. At the same concentration, the inhibitor was included in the reference blank. The reference blank contained all the following reagents except the substrate to correct NADPH oxidation, which is not associated with the substrate’s reduction. Briefly, 2.4 mL of 66.7 mM phosphate Na^+/K^+ assay buffer (pH = 6.2), 100 μL of 3.2 mM NADPH solution in assay buffer, 300 μL of enzyme supernatant, 90 μL of ultrapure water, and 10 μL of solution of tested inhibitors in DMSO in appropriate concentration or pure DMSO (served as control) were mixed in that order in a glass vial. Subsequently, 1 mL of that mixture was transferred to each 1.5 mL-UV quartz cuvette (10 mm path length), and 100 μL of assay buffer (reference blank) or 110 mM DL-glyceraldehyde solution (10 mM final concentration) in assay buffer was added to initiate the enzyme reaction. ALR2 activity was assayed by monitoring NADPH consumption (0.1 mM final concentration) at 340 nm for 5 min after incubating reaction mixtures for 1 min at 30 °C. […] IC50 values were determined by least-squares regression analysis of the semi-logarithmic dose–inhibition curves. Each curve was generated using at least five compounds’ concentrations, causing inhibition from at least 15–80% in at least three triplicate repetitions.

Cc1c(S(=O)(=O)c2ccc(=O)[nH]n2)oc2ccc(Cl)cc12 [CP-744809, 6-(5-chloro-3-methylbenzofuran-2-sulfonyl)-2H-pyridazin-3-one]
IC50 (ALR2): 0.84 nM | oral bioavailability ([1]; at 2 mg/kg): 98% | plasma half-life ([1]; preclinical studies): 23 to 29 h | Caco-2 transcellular permeability (Caco-2): > 10^−5 cm/s | in vivo normalization of elevated sorbitol and fructose (diabetic rats): remarkable efficiency in vivo in normalizing elevated sorbitol and fructose

O=S(=O)(c1ccc(O)c(F)c1)n1ccc2cc(F)ccc21 [Compound 3a, 4-((5-fluoro-1H-indol-1-yl)sulfonyl)-2-fluorophenol]
fold activity loss compared to lead compound IIc [2]: 3.1 fold | fold less strong ARI than sorbinil and epalrestat [2]: 12 fold | inhibition at 10 µM [2]: 74.5 ± 2.6% | IC50 [2]: 3020 ± 450 nM

Oc1ccc(-n2ccc3cc(Cl)ccc32)cc1F [Compound 3d, 4-(5-chloro-1H-indol-1-yl)-2-fluorophenol]
inhibition at 10 µM [2]: 43.7 ± 1.3% | ALR2 inhibitory activity at 1 μM ([2]; lower dose of 1 μM): completely inactive | IC50 [2]: > 10000 nM

O=S(=O)(c1ccc(O)c(F)c1)n1ccc2cc(Cl)ccc21 [Compound 3b, 4-((5-chloro-1H-indol-1-yl)sulfonyl)-2-fluorophenol]
fold activity loss compared to lead compound IIc [2]: 2.3 fold | fold less strong ARI than sorbinil and epalrestat [2]: 9 fold | inhibition at 10 µM [2]: 77.6 ± 1.3% | IC50 [2]: 2220 ± 280 nM

O=S(=O)(c1ccc(O)c(F)c1)n1ccc2cc(Br)ccc21 [Compound 3c, 4-((5-bromo-1H-indol-1-yl)sulfonyl)-2-fluorophenol]
fold activity loss compared to lead compound IIc [2]: 1.9 fold | fold less strong ARI than sorbinil and epalrestat [2]: 7.4 fold | inhibition at 10 µM [2]: 80.6 ± 2% | IC50 [2]: 1850 ± 150 nM
